Test results taken from ChEMBL document CHEMBL4265938, “Donepezil-based multi-functional cholinesterase inhibitors for treatment of Alzheimer's disease” (Eur J Med Chem, 2018).
Each block holds one compound with its values, some of them ahead of it.

How the values were obtained:
Acetylcholinesterase [1] = molecular target: T1, Acetylcholinesterase (Homo sapiens, UniProt P22303); test: Inhibition of recombinant human AChE using acetylthiocholine iodide as substrate preincubated for 20 mins followed by substrate addition measured after 5 mins by Ellman's method
Beta-secretase 1 = Beta-secretase 1 (Homo sapiens, UniProt P56817); test: Inhibition of BACE-1 (unknown origin)
Acetylcholinesterase [2] = molecular target: T1, Acetylcholinesterase; test: Inhibition of recombinant human AChE using acetylthiocholine iodide as substrate preincubated for 5 mins followed by substrate addition measured after 5 mins by Ellman's method
[3] = molecular target: Amyloid-beta precursor protein (Homo sapiens) (UniProt P05067); test: Inhibition of recombinant human HFIP-pretreated amyloid beta (1 to 42) self aggregation at 10 uM after 24 hrs by ThT-based fluorometric method relative to control
Acetylcholinesterase [4] = molecular target: T2, Acetylcholinesterase (Electrophorus electricus, UniProt O42275); test: Inhibition of electric eel AChE using acetylthiocholine iodide as substrate preincubated for 5 mins followed by substrate addition measured after 5 mins by Ellman's method
[5] = molecular target: T3, Amine oxidase [flavin-containing] A (Homo sapiens, UniProt P21397); test: Inhibition of human MAOA
T3 sequence (P21397 whole entry): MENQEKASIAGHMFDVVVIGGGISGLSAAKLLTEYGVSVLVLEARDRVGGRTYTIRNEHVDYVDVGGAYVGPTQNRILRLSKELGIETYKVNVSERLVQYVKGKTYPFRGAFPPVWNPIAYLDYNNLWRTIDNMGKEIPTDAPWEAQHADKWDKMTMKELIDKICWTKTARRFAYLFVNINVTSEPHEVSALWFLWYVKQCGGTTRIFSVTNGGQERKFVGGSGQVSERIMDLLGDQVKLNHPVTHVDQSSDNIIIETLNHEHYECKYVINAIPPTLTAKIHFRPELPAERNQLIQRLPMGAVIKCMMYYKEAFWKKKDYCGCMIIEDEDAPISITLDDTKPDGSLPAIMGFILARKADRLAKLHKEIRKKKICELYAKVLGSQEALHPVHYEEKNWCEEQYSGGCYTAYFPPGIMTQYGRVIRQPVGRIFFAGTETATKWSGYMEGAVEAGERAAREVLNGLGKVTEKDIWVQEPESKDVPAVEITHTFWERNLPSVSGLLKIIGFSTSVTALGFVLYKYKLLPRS

[6] = molecular target: T4, Amine oxidase [flavin-containing] B (Homo sapiens, UniProt P27338); test: Inhibition of human MAOB
T4 sequence (P27338 whole entry): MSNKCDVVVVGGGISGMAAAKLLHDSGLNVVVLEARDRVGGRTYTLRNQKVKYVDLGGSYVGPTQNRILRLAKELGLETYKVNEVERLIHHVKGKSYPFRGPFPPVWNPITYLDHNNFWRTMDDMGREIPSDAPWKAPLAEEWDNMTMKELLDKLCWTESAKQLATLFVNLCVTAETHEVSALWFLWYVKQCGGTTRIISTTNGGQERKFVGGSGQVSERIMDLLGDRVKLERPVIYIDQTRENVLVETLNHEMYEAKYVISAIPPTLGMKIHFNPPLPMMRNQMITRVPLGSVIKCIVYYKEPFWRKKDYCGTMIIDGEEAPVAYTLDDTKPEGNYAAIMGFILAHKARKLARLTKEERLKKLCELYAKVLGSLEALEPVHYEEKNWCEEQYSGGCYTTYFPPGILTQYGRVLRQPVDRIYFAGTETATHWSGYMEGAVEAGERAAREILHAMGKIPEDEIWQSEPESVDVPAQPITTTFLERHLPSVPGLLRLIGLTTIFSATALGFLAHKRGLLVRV

Acetylcholinesterase [7] = molecular target: T2, Acetylcholinesterase; test: Inhibition of electric eel AChE
Cholinesterase [8] = molecular target: T5, Cholinesterase (Equus caballus, UniProt P81908); test: Inhibition of equine serum BuChE
[9] = Effective permeability of the compound; type: ADME; settings: not told; read-out: Peff
Acetylcholinesterase [10] = molecular target: T2, Acetylcholinesterase; test: Inhibition of electric eel AChE using acetylthiocholine iodide as substrate preincubated for 20 mins followed by substrate addition measured after 5 mins by Ellman's method
Cholinesterase [11] = molecular target: T5, Cholinesterase; test: Inhibition of equine serum BuChE using butyrylthiocholine iodide as substrate preincubated for 20 mins followed by substrate addition measured after 30 mins by Ellman's method
[12] = molecular target: T4, Amine oxidase [flavin-containing] B; test: Inhibition of recombinant human MAOB using tyramine hydrochloride as substrate preincubated for 30 mins followed by substrate addition measured for 1 hr by fluorometric method
[13] = Selectivity ratio of IC50 for electric eel AChE to IC50 for equine serum BuChE
Acetylcholinesterase [14] = molecular target: T2, Acetylcholinesterase; test: Mixed type inhibition of electric eel AChE
Cholinesterase [15] = molecular target: T5, Cholinesterase; test: Mixed type inhibition of equine serum BuChE
[16] = Antioxidant activity assessed as trolox equivalent of AAPH-induced radical scavenging activity at 70 nM preincubated for 15 mins followed by AAPH addition measured every min for 80 mins by ORAC-FL assay; type: functional

T5 sequence (P81908 whole entry): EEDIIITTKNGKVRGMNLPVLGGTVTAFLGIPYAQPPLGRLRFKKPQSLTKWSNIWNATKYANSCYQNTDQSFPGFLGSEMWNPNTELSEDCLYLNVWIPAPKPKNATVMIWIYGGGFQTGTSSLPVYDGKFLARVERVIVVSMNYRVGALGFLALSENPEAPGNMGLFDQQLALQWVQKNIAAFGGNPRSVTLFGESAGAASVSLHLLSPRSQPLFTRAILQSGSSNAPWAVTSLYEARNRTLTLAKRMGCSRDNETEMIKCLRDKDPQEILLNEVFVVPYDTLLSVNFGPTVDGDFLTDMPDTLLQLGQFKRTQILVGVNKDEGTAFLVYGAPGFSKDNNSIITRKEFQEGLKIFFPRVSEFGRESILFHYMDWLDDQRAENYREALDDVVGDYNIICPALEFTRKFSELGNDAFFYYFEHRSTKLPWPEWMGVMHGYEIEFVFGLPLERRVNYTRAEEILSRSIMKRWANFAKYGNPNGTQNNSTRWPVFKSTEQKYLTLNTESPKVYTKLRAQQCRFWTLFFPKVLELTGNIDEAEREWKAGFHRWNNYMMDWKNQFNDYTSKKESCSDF
T2 sequence (O42275 whole entry): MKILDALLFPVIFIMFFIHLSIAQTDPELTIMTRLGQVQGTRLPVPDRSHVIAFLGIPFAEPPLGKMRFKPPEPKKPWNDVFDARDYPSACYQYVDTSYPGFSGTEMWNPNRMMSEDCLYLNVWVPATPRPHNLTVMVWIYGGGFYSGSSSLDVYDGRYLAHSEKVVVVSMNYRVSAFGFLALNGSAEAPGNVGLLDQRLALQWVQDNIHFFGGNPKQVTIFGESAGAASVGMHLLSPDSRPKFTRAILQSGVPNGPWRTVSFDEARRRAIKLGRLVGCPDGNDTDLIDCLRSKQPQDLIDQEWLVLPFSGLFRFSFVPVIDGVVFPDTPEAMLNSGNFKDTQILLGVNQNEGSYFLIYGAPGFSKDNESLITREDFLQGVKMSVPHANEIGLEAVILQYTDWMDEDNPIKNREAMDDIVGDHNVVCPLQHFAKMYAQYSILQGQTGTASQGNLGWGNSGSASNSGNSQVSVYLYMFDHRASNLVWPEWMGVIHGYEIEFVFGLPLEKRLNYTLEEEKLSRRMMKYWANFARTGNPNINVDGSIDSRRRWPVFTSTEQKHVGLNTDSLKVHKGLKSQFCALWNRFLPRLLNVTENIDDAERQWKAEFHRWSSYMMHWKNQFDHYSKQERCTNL
Chain of Beta-secretase 1 (P56817 whole entry): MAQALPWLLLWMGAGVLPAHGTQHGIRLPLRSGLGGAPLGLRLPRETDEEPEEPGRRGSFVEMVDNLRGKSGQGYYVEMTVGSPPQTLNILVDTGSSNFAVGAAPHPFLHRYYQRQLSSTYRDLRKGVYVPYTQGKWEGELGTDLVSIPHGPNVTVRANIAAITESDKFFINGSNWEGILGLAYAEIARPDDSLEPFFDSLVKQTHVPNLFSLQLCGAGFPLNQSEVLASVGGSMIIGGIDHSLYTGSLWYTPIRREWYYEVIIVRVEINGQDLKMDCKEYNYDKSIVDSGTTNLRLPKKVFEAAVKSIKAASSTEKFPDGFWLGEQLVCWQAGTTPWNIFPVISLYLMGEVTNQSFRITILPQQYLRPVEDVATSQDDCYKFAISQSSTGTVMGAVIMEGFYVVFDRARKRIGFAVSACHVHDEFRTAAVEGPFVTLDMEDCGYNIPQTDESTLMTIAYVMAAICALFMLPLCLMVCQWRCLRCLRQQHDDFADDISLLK
T1 sequence (P22303 whole entry): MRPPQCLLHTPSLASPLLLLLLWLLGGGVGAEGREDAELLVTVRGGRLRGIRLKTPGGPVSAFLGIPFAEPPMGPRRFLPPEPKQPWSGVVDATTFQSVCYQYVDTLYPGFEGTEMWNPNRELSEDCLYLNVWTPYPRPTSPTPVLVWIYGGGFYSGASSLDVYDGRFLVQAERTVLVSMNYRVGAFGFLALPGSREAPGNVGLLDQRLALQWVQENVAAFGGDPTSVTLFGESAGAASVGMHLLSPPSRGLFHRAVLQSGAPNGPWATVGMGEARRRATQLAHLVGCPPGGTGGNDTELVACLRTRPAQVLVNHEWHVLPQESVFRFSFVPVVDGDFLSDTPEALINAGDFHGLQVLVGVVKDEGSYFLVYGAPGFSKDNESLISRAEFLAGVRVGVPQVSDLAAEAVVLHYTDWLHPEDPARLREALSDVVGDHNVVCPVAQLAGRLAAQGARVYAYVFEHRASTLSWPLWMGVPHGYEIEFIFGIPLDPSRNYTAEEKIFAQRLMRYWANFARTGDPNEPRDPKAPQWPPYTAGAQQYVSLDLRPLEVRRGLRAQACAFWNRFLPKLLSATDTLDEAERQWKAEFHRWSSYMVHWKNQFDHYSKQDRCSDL
Chain of Amyloid-beta precursor protein (Homo sapiens) (P05067 whole entry): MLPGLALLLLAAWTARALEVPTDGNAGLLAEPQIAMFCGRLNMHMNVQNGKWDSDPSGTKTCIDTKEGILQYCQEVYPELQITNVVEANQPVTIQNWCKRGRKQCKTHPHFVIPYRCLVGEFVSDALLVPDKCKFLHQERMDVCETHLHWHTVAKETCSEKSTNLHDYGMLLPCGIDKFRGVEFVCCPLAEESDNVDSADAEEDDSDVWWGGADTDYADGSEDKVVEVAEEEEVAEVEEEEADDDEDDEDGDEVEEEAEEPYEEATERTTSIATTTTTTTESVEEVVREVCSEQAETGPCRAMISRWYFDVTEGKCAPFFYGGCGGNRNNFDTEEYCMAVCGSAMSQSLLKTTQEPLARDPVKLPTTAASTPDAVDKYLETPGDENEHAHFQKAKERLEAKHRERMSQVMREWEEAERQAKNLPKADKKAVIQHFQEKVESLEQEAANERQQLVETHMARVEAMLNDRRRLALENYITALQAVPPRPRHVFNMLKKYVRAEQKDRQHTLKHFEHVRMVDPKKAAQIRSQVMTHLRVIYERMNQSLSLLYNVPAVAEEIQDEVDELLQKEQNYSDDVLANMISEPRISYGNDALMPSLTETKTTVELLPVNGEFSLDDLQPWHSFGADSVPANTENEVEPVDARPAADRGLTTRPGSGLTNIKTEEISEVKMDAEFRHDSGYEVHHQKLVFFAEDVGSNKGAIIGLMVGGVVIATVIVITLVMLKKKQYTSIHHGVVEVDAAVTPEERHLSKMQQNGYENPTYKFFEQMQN

Compound: C#CCNc1nc(NCCCCC2CCN(Cc3ccccc3)CC2)c(C#N)cc1C#N
- IC50 (Acetylcholinesterase [1]): 0.001 µM

- IC50 (Beta-secretase 1): 0.697 µM
Compound: COc1cc2c(cc1OC)C(=O)/C(=C/C1CCN(Cc3ccccc3)CC1)C2

Compound: CN(CCCCCN1C(=O)c2ccccc2S1(=O)=O)Cc1ccccc1
- IC50 (Acetylcholinesterase [2]): 0.033 µM
- inhibition [3]: 22.2%
- IC50 (Acetylcholinesterase [4]): 0.036 µM

Compound: O=C(NCCC1CCN(Cc2ccccc2)CC1)c1ccc(Cl)cn1
- IC50 [5]: 13.4 µM
- IC50 [6]: 3.14 µM
- IC50 (Acetylcholinesterase [7]): 0.22 µM
- IC50 (Cholinesterase [8]): 1.23 µM
- Papp [9]: 104 nm/s

Compound: C#CCNc1nc(NCCCC2CCN(Cc3ccccc3)CC2)c(C#N)cc1C#N
- IC50 (Acetylcholinesterase [10]): 0.0011 µM
- IC50 (Cholinesterase [11]): 0.6 µM
- IC50 [12]: 3.95 µM

- IC50 (Beta-secretase 1): 0.333 µM
Compound: COc1ccc2c(c1)C/C(=C\C1CCN(Cc3ccccc3)CC1)C2=O

Compound: Cn1c(=O)n(C)c2cc(S(=O)(=O)NCC3CCN(Cc4ccc(F)cc4)CC3)ccc21
- Ratio IC50 [13]: 66.1
- IC50 (Acetylcholinesterase [14]): 2.05 µM
- IC50 (Cholinesterase [15]): 0.031 µM

Compound: COc1cc(/C=C/C(=O)N(CCCC2CCN(Cc3ccccc3)CC2)CC(=O)Nc2c(C)cccc2Cl)ccc1O
- IC50 (Acetylcholinesterase [7]): 0.0293 µM
- IC50 (Cholinesterase [8]): 0.0523 µM
- Activity [16]: 5.32 equiv
